Measured values published in patent US12550899B2, “Topramezone derivative and use thereof” (priority 2023, dated 2026).

Experiments:
Experiment in all cases: Laboratory bioactivity efficacy test 2.1 (foliar spray)
Format in all cases: in vivo
Settings in all cases: for GR50 / GR90: fresh weight control efficacy 14 days after application
[1] = tested on: Acalypha australis
Excerpt: (§1) Refer to the “Pesticides guidelines for laboratory bioactivity tests Part 4: Foliar spray application test for herbicide activity, NY/T 1155.4-2006”.
(§2) • grassy weeds: Setaria viridis, Chloris virgata; • sedge: Cyperus rotundus; • Broadleaf weeds: Amaranthus retroflexus, Chenopodium album, Acalypha australis, Commelina communis, Convolvulus arvensis, Cirsium setosum, and Eclipta prostrata. 2.1.3 Test Conditions
(§3) The soil used for the test was a mixture of surface 20 cm loam and vermiculite, mixed in a volume ratio of 3:1 to form a culture soil. The test corn was cultured in a glass greenhouse with a temperature ranging from 25° C. to 35° C. and under natural light.
(§4) A measured quantity of weed seeds were sown in plastic pots with a diameter of 9 cm, and covered with 1-2 mm of soil. The ports were then placed in enamel trays filled with water, and watered by bottom irrigation. After sowing, the pots were transferred to the glass greenhouse for cultivation and growth.
(§5) Five dosages were set for Compound I, Compound II and the control herbicide Topramezone, which were 3.75, 7.5, 15, 30 and 60 grams of active ingredient per hectare respectively. In addition, a blank control was also prepared.
(§6) The required amount of the herbicide was accurately measured out, an appropriate amount of emulsifier and organic solvent were added to dissolve the herbicide, and then a certain amount of water was added therein until the herbicide was diluted to the required dosage by using the serial dilution method for standby.
(§7) The fresh weight of each treatment was surveyed 14 days after the application of the herbicide. The fresh weight control efficacy was calculated according to the following formula: fresh weight control efficacy (%)=(control fresh weight−treatment fresh weight)/control fresh weight×100.
(§8) A DPS statistical software was used to conduct regression analysis on the logarithmic values of the herbicide dosage and the probit values of the corn fresh weight control efficacy, and the correlation coefficient, GR50, GR90, and the 95% confidence interval were calculated.

[2] = tested on: Setaria viridis
Excerpt: as §1, §2, §3, §4, §5, §6, §7, §8

[3] = tested on: Eclipta prostrata
Excerpt: as §1, §2, §3, §4, §5, §6, §7, §8

[4] = tested on: Commelina communis
Excerpt: as §1, §2, §3, §4, §5, §6, §7, §8

[5] = tested on: Amaranthus retroflexus
Excerpt: as §1, §2, §3, §4, §5, §6, §7, §8

[6] = tested on: Cirsium setosum
Excerpt: as §1, §2, §3, §4, §5, §6, §7, §8

[7] = tested on: Chloris virgata
Excerpt: as §1, §2, §3, §4, §5, §6, §7, §8

[8] = tested on: Convolvulus arvensis
Excerpt: as §1, §2, §3, §4, §5, §6, §7, §8

[9] = tested on: Chenopodium album
Excerpt: as §1, §2, §3, §4, §5, §6, §7, §8

[10] = tested on: Cyperus rotundus
Excerpt: as §1, §2, §3, §4, §5, §6, §7, §8

SMILES	GR50 [1] [g a.i./ha]	GR90 [1] [g a.i./ha]	GR50 [2] [g a.i./ha]	GR90 [2] [g a.i./ha]	GR50 [3] [g a.i./ha]	GR90 [3] [g a.i./ha]	GR50 [4] [g a.i./ha]	GR90 [4] [g a.i./ha]	GR50 [5] [g a.i./ha]	GR90 [5] [g a.i./ha]	GR50 [6] [g a.i./ha]	GR90 [6] [g a.i./ha]	GR50 [7] [g a.i./ha]	GR90 [7] [g a.i./ha]	GR50 [8] [g a.i./ha]	GR90 [8] [g a.i./ha]	GR50 [9] [g a.i./ha]	GR90 [9] [g a.i./ha]	GR50 [10] [g a.i./ha]	GR90 [10] [g a.i./ha]	further results
COC(=O)OC(C)Oc1c(C(=O)c2ccc(S(C)(=O)=O)c(C3=NOCC3)c2C)cnn1C (stereo not shown) [Compound I, 1-((4-(3-(4,5-dihydroisoxazol-3-yl)-2-methyl-4-(methylsulfonyl)benzoyl)-1-methyl-1H-pyrazol-5-yl)oxy)ethyl methyl carbonate]	2.42	7.55	3.96	11.42	2.30	11.62	4.98	16.38	2.86	5.64	5.56	20.60	2.25	10.81	1.81	31.82	1.22	5.98	11.78	29.57	Control efficacy compared with Topramezone (in words) [1]: significantly better control efficacy; Efficacy relative to that of Topramezone [1]: approximately 2 times; Control efficacy compared with Topramezone (in words) [2]: better control efficacy; Efficacy relative to that of Topramezone [2]: approximately 1.5 times; Control efficacy compared with Topramezone (in words) [3]: significantly better control efficacy; Efficacy relative to that of Topramezone [3]: approximately 2 times; Control efficacy compared with Topramezone (in words) [4]: significantly better control efficacy; Efficacy relative to that of Topramezone [4]: approximately 2 times; Control efficacy compared with Topramezone (in words) [5]: significantly better control efficacy; Efficacy relative to that of Topramezone [5]: approximately 2 times; Control efficacy compared with Topramezone (in words) [6]: significantly better control efficacy; Efficacy relative to that of Topramezone [6]: approximately 2 times; Control efficacy compared with Topramezone (in words) [7]: better control efficacy; Efficacy relative to that of Topramezone [7]: approximately 1.5 times; Control efficacy compared with Topramezone (in words) [8]: significantly better control efficacy; Efficacy relative to that of Topramezone [8]: approximately 2 times; Control efficacy compared with Topramezone (in words) [9]: significantly better control efficacy; Efficacy relative to that of Topramezone [9]: approximately 2 times; Control efficacy compared with Topramezone (in words) [10]: better control efficacy
Cc1c(C(=O)c2cnn(C)c2OC(=O)C(C)(C)C)ccc(S(C)(=O)=O)c1C1=NOCC1 [Compound II, 4-(3-(4,5-dihydroisoxazol-3-yl)-2-methyl-4-(methylsulfonyl)benzoyl)-1-methyl-1H-pyrazol-5-yl pivalate]	6.04	16.46	6.77	19.04	4.67	23.27	13.73	39.85	4.64	11.19	15.14	48.92	4.41	15.22	7.31	58.43	2.83	11.74	15.68	39.11	
Cc1c(C(=O)c2cnn(C)c2O)ccc(S(C)(=O)=O)c1C1=NOCC1 [Topramezone]	5.27	16.92	6.72	19.16	6.33	23.72	14.38	40.29	4.05	11.29	15.89	49.41	3.33	15.81	4.63	66.46	3.22	12.76	16.11	39.22	
